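Results reflect a 48-hour exposure of cells in 96-well plates to compound at five concentrations. GI50 is the concentration that inhibits growth by half. Definition used: TGI = concentration required for complete inhibition of growth.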
How the values were obtained:
Experiment in all cases: NCI-60 cell line screen, 48 h
[1] = tested on: A498 renal
[2] = tested on: CAKI-1 renal
[3] = tested on: HCC-2998 colon
[4] = tested on: M14 melanoma
[5] = tested on: SF-539 CNS
[6] = tested on: SK-MEL-28 melanoma
[7] = tested on: SNB-75 CNS
[8] = tested on: TK-10 renal
[9] = tested on: UACC-257 melanoma
[10] = tested on: SR leukemia

Row | Structure (SMILES) | GI50 [1] | TGI [1] | GI50 [2] | TGI [2] | GI50 [3] | TGI [3] | GI50 [4] | TGI [4] | GI50 [5] | TGI [5] | GI50 [6] | TGI [6] | GI50 [7] | TGI [7] | GI50 [8] | TGI [8] | GI50 [9] | TGI [9] | GI50 [10] | TGI [10]
1 | Clc1ccc(-c2cc(-c3ccccc3)nc(N3CCN(CCCNc4ccnc5cc(Cl)ccc45)CC3)n2)cc1 | 1.48 µM | 2.81 µM | 1.66 µM | 3.13 µM | 1.56 µM | 3.02 µM | 1.87 µM | 3.53 µM | 1.79 µM | 3.25 µM | 1.72 µM | 3.14 µM | 1.49 µM | 2.85 µM | 1.75 µM | 3.26 µM | 1.93 µM | 3.89 µM |  | 
2 | C#CCN(N=O)C(=O)NC(CCCCNC(=O)OCc1ccccc1)C(=O)OCc1ccccc1 (stereo not given) |  | > 100 µM |  |  |  | > 100 µM |  | 56.6 µM |  |  |  | 77.6 µM |  | 97.4 µM |  | 86 µM |  | 79.5 µM |  | 
3 | NC(N)=NN=c1c(=O)c2ccccc2c1=O |  |  | 18.9 µM | 41.2 µM | 14.2 µM | 28 µM | 2 µM | 3.46 µM | 5.67 µM | 18 µM | 2 µM | 3.88 µM | 11.4 µM | 23.7 µM | 22.6 µM | 37.4 µM | 15.1 µM | 28.9 µM | 2.4 µM | 5.92 µM
4 | O=C(O)C1C2C=CC(O2)C1C(=O)NCc1cccnc1 (stereo not given) |  | > 100 µM |  | > 100 µM |  |  |  | > 100 µM |  | > 100 µM |  | > 100 µM |  | > 100 µM |  | > 100 µM |  | > 100 µM |  | > 100 µM
5 | CC(C)C[C@H](CC(=O)O)C(=O)N[C@@H](Cc1c[nH]c2ccccc12)C(=O)N[C@@H](C)c1ccccc1 | > 25 µM | > 25 µM | > 25 µM | > 25 µM | > 25 µM | > 25 µM | > 25 µM | > 25 µM | > 25 µM | > 25 µM | > 25 µM | > 25 µM | > 25 µM | > 25 µM | > 25 µM | > 25 µM | > 25 µM | > 25 µM |  | 
6 | C[C@@H](C1CC[C@H]2[C@@H]3[C@@H]4O[C@@H]4[C@@]4(O)CC=CC(=O)[C@]4(C)[C@H]3C[C@H](O)[C@]12C)[C@H]1C[C@]2(C)O[C@]2(C)C(=O)O1 (stereo not given in full) |  | > 100 µM |  | > 100 µM |  | > 100 µM |  | > 100 µM |  | > 100 µM |  | > 100 µM |  | > 100 µM |  | > 100 µM |  | > 100 µM |  | 
7 | CCCCC(C(=O)C(=O)Nc1ccc(C)cc1C)C(=O)C(C)C (stereo not given) |  | > 100 µM |  | > 100 µM |  | > 100 µM |  | > 100 µM |  | > 100 µM |  | > 100 µM |  | > 100 µM |  | > 100 µM |  | > 100 µM |  | 
8 | COc1cc(/C=C/C(=O)c2cccc3ccccc23)cc(OC)c1OC |  | 10.6 µM |  | 23.2 µM |  | 28.2 µM |  | 19.1 µM |  |  |  | 19.4 µM |  | 23.3 µM |  | 27.3 µM |  | 19.7 µM |  | 73.2 µM
9 | CNC(=O)c1cc(Oc2ccc3nc(NC(=O)Nc4ccc(CN5CCOCC5)c(C(F)(F)F)c4)sc3c2)ccn1 | 1.9 µM | 4.05 µM | 2.05 µM | 6.83 µM | 3 µM | 7.11 µM | 2.48 µM | 6.53 µM | 1.58 µM | 3.37 µM | 1.8 µM | 4.29 µM | 1.74 µM | 4.95 µM | 4.45 µM | 14.7 µM | 2.16 µM | 5.59 µM |  | 
